Reference: patent US7462345B2, “Radionuclide labeling of vitamin B12 and coenzymes thereof” (Mayo Foundation for Medical Education and Research, priority 1995, dated 2008)

Experiments:
[1] = pH of 1000 μg/10 ml normal saline solutions; type: physicochemical; details: 1000 μg in 10 ml normal saline, no buffers, room temperature
Protocol: Under dim light, 1000 μg of the non-labeled methyl-, adenosyl-, and cyanocobalamin-b-(4-aminobutyl)amide-DTPA, as well as 1000 μg of cyanocobalamin and DTPA (Sigma, St. Louis, Mo. 63178), were separately dissolved in 10 ml of normal saline at room temperature. Each of the five 1000 μg/10 ml samples were stored in sealed, aluminum-Tapped 10 ml vials to prevent exposure to light. No buffers were added to the solutions. The pH of the solutions, measured by a Beckman 40 pH meter (Beckman Instruments, Fullerton, Calif.): Cyanocobalamin=5.75, DTPA=3.78; cyano, methyl and adenosylcobalamin-DTPA analogues were 5.75, 6.10, and 6.19, respectively.

[2] = tested on: Transcobalamins (TC); assay: modified Unsaturated vitamin B12 Binding Capacity (UBBC) assay; design: species or system human; details: for averaged percent binding to the transcobalamin proteins: average of five patients; for UBBC supernatant counts: NSB = counts <100
Protocol: (§1) Under dim light, 1000 μg of the non-labeled methyl-, adenosyl-, and cyanocobalamin-b-(4-aminobutyl)amide-DTPA, as well as 1000 μg of cyanocobalamin and DTPA (Sigma, St. Louis, Mo. 63178), were separately dissolved in 10 ml of normal saline at room temperature. Each of the five 1000 μg/10 ml samples were stored in sealed, aluminum-Tapped 10 ml vials to prevent exposure to light. No buffers were added to the solutions. The pH of the solutions, measured by a Beckman 40 pH meter (Beckman Instruments, Fullerton, Calif.): Cyanocobalamin=5.75, DTPA=3.78; cyano, methyl and adenosylcobalamin-DTPA analogues were 5.75, 6.10, and 6.19, respectively. To assess in vitro binding to Intrinsic Factor (IF) and Transcobalamins (TC), the intrinsic factor blocking antibody (IFBA) and Unsaturated vitamin B12 Binding Capacity (UBBC) assays were performed with serum randomly obtained from five patients being evaluated for pernicious anemia at the Mayo Clinic. The IFBA and UBBC assays were first performed for clinical purposes as previously described by V. F. Fairbanks et al., Mayo Clin. Proc., 58, 203 (1983); Intrinsic Factor Blocking Antibody [^57Co] Radioassay-Package insert, Diagnostic Products Corp.; D. Grossowicz et al., Proc. Exp. Biol. 109, 604 (1962) and C. Gottlieb et al., Blood 25, 6 (1965). Next, the serum from the same five patients underwent modified IFBA and UBBC assays. Specifically, 1 μl of the five previously described solutions were separately incubated with purified IF or serum, to potentially saturate all IF and TC binding sites. After incubation for 20 minutes at room temperature and for another 20 minutes at 4° C., 500 μl of the stock (1000 μg/l) Cobalt-57-cyanocobalamin (Mallinckrodt Medical. Inc., St. Louis, Mo. 63134) solution was added and the usual IFBA and UBBC protocols were then followed. All supernatant activity was counted for four minutes on a gamma counter (Micromedix 10/20, Huntsville, Ala. 35805).

[3] = tested on: Intrinsic Factor (IF); assay: modified intrinsic factor blocking antibody (IFBA) assay; type: binding; details: for averaged percent binding to IF: average of five patients, estimated from counts vs Clinical run
Protocol: as §1

[4] = serum PT 1, preincubated with 1 μl of 1000 μg/10 ml solution, then Co-57-cyanocobalamin, Clinical Run 741
[5] = PT 1, negative <1.11, positive (binding to IF) >1.43, indeterminate 1.11-1.43
[6] = PT 2, negative <1.11, positive >1.43
[7] = PT 3, negative <1.11, positive >1.43
[8] = PT 4, negative <1.11, positive >1.43
[9] = PT 5, negative <1.11, positive >1.43

Row | SMILES | pH of the solution [1] | averaged percent binding to the transcobalamin proteins [2] [%] | UBBC supernatant counts [2, 4] [counts] | UBBC supernatant counts ([2]; serum PT 2, Clinical Run 632) [counts] | UBBC supernatant counts ([2]; serum PT 3, Clinical Run 2097) [counts] | UBBC supernatant counts ([2]; serum PT 4, Clinical Run 1378) [counts] | UBBC supernatant counts ([2]; serum PT 5, Clinical Run 1682) [counts] | IFBA supernatant counts ([3]; PT 1, Clinical Run 11942.5) [counts] | IFBA value (in parentheses) [3, 5] | IFBA supernatant counts ([3]; PT 2, Clinical Run 11656) [counts] | IFBA value (in parentheses) [3, 6] | IFBA supernatant counts ([3]; PT 3, Clinical Run 11780) [counts] | IFBA value (in parentheses) [3, 7] | IFBA supernatant counts ([3]; PT 4, Clinical Run 11617) [counts] | IFBA value (in parentheses) [3, 8] | IFBA supernatant counts ([3]; PT 5, Clinical Run 11653.5) [counts] | IFBA value (in parentheses) [3, 9] | averaged percent binding to IF [3] [%]
1 | CC1=C2N=C(C=C3N=C(C(C)=C4[N-]C(C(CC(N)=O)C4(C)CCC(=O)NCC(C)OP(=O)([O-])OC4C(CO)OC(n5cnc6cc(C)c(C)cc65)C4O)C4(C)N=C1C(CCC(=O)NCCCCNC(=O)CN(CCN(CCN(CC(=O)O)CC(=O)O)CC(=O)O)CC(=O)O)C4(C)CC(N)=O)C(CCC(N)=O)C3(C)C)C(CCC(N)=O)C2(C)CC(N)=O.[C-]#N.[Co+3] (stereo not drawn) [CNB12DTPA, cyanocobalamin-b-(4-aminobutyl)-amide-DTPA] | 5.75 | 66.4 | 222.6 | 216.9 | 713.3 | 433.2 | 643.2 | 5151 | (2.30) | 5133.5 | (2.31) | 5338.5 | (2.22) | 6002.5 | (1.98) | 5973.5 | (1.99) | 52.9
2 | CC1=C2N=C(C=C3N=C(C(C)=C4[N-]C(C(CC(N)=O)C4(C)CCC(=O)NCC(C)OP(=O)([O-])OC4C(CO)OC(n5cnc6cc(C)c(C)cc65)C4O)C4(C)N=C1C(CCC(=O)NCCCCNC(=O)CN(CCN(CCN(CC(=O)O)CC(=O)O)CC(=O)O)CC(=O)O)C4(C)CC(N)=O)C(CCC(N)=O)C3(C)C)C(CCC(N)=O)C2(C)CC(N)=O.[CH3-].[Co+3] (stereo not drawn) [MEB12DTPA, methylcobalamin-b-(4-aminobutyl)-amide-DTPA] | 6.10 | 94.0 | 17.1 | 26.8 | 278.9 | 60.9 | 91.1 | 4279 | (2.77) | 4082 | (2.92) | 4456.5 | (2.66) | 4414 | (2.69) | 4381.5 | (2.77) | 63.2
3 | CC1=C2N=C(C=C3N=C(C(C)=C4[N-]C(C(CC(N)=O)C4(C)CCC(=O)NCC(C)OP(=O)([O-])OC4C(CO)OC(n5cnc6cc(C)c(C)cc65)C4O)C4(C)N=C1C(CCC(=O)NCCCCNC(=O)CN(CCN(CCN(CC(=O)O)CC(=O)O)CC(=O)O)CC(=O)O)C4(C)CC(N)=O)C(CCC(N)=O)C3(C)C)C(CCC(N)=O)C2(C)CC(N)=O.[CH2-]C1OC(n2cnc3c(N)ncnc32)C(O)C1O.[Co+3] (stereo not drawn) [ADB12DTPA, adenosylcobalamin-b-(4-aminobutyl)-amide-DTPA] | 6.19 | 90.4 | 54.6 | 62.6 | 590.3 | 126.9 | 163.9 | 6758.5 | (2.30) | 6841.5 | (1.74) | 6828.5 | (1.74) | 7046.5 | (1.64) | 7096.5 | (1.72) | 41.0
